This is an account of results in ChEMBL document CHEMBL1158015, “New steroid glycosides from the deep-water starfish Mediaster murrayi” (J Nat Prod, 1999).

Structures are written as SMILES.

Data set [1] can be described thus: Inhibition of cell division of sea urchin fertilized eggs at 25 uM. The settings on record: Strongylocentrotus intermedius, Egg. Format: functional.
Data set [2] can be described thus: Toxicity in mouse erythrocytes assessed as hemolysis. The settings on record: read-out: ED50 (the source's name). It counts as cell-based, Erythrocyte.
Data set [3] can be described thus: Inhibition of cell division of sea urchin fertilized eggs at 100 uM. The settings on record: Strongylocentrotus intermedius, Egg. Format: functional.

By inhibition is commonly meant the change of the read-out against control, counted positive when it falls. Read a high inhibition as a strong effect.

Consider `CO[C@H]1[C@H](OC[C@@H]2O[C@@H](O[C@@H](CC[C@@H](C)[C@H]3C[C@@H](O)[C@@H]4[C@]3(C)CC[C@H]3[C@@]4(O)C[C@H](O)C4C[C@@H](O)CC[C@@]43C)C(C)C)[C@H](O)[C@H]2O)OC[C@@H](O)[C@@H]1O` (some centres undefined) [MEDIASTEROSIDE M1], for which, in data set [1], 25 µM produced 100% inhibition. Further, in data set [2], the HC50 turned out to be 66 µM.

On to `CC(C)[C@H](CC[C@@H](C)[C@H]1C[C@@H](O)[C@@H]2[C@]1(C)CC[C@H]1[C@@]2(O)C[C@H](O)C2C[C@@H](O)CC[C@@]21C)O[C@@H]1O[C@@H](CO[C@@H]2OC[C@@H](O)[C@H](O)[C@H]2O)[C@H](O)[C@H]1O` (some centres undefined) [MEDIASTEROSIDE M2], for which, in data set [3], the inhibition at 100 µM was 100%. For the same compound, in data set [2], the HC50 stood at 35 µM.
